Results: patent US20250352555A1, “METHOD OF INCREASING IMMUNE CELL ACTIVATION AND/OR TREATING CANCER USING DIBENZOXAZEPINONES” (VASCULAR THERAPEUTICS PTY LTD, priority 2022, published 2025)
Values joined by “and” are separate entries in the source; they are usually repeats but may differ in a detail not shown here. Equal entries are not always repeated. Where two headings read alike, the source gives them in different places.

How the values were obtained:
[1] = Systemic pharmacokinetics after oral (PO) and intraperitoneal (IP) administration; assay type: in vivo; details: male, CD-1, mouse, plasma, 30 mg/kg, male CD-1 mice; for bioavailability: PO, read-out: relative bioavailability
Procedure: Systemic pharmacokinetics after oral (PO) and intraperitoneal (IP) administration. Male CD-1 mice were injected with BT2 in Formulation 1, Formulation 2 or Formulation 3 (Table 4) and blood was collected after 0.083, 0.25, 0.5, 1, 2, 4, 8 and 24 h. BT2 was given PO or IP injection.
Approximately 110 μl blood samples were collected (n=3/time point, 3 mice/group) into tubes with EDTA-K2 anticoagulant. All blood samples were put on wet ice prior to centrifuging (6000 g, 4° C. for 5 min) to obtain plasma, which were stored at −70° C. or dry ice until analysis.
Plasma samples were analysed by LC-MS/MS (SCIEX ExionLC)-MS/MS (Triple Quad 6500+ With Analyst 1.7.1 AB Sciex). HPLC was performed using a Waters Acquity UPLC HSS T3 1.8 μm, 2.1×50 mm column with Mobile Phase A: H2O-0.025% FA+1 mM NH4OAc and Mobile Phase B: MeOH-0.025% FA+1 mM NH4OAc and injection volume 3 μl.
LC-MS/MS detection was performed for BT2 in plasma of mice given BT2 either by oral gavage (PO) or intraperitoneal (IP) injection. Plasma samples were processed (protein precipitation method used) and injected into LC-MS/MS (SCIEX ExionLC coupled with Triple Quad 6500+).

CD28 = molecular target: T1, CD28 (Macaca fascicularis, UniProt Q0PDN3); assay: Surface plasmon resonance (SPR), Biacore T200; assay type: binding; details: BT2 up to 20 μM (8-point dilution series), 12° C., 20 mM HEPES, 150 mM NaCl, 5% DMSO, pH 7.5
T1 construct: purchased Sino Biological
Procedure: Surface plasmon resonance (SPR). Using a Biacore T200 (Cytiva), CD28 (Sino Biological) was immobilised onto a Series S sensor Chip CM5 (GE) by amine coupling to a level of ˜3000 RU on flow cells 2 and 4 at 25° C., with a flowrate of 10 μl/min. 0.2 M EDC+0.05 M NHS was injected for 420 s followed by CD28 (37.5 μg/ml in 10 mM acetate pH 5) for 450 s with the flowrate reduced to 2 μl/min. Unreacted NHS was blocked with an injection of 1 M ethanolamine-HCl pH 8.5 for 420 s. Flow cells 1 and 3 were used as the reference cells, activated and blocked as described above. Immobilisation running buffer was 20 mM HEPES, 150 mM NaCl, pH 7.5. The SPR run was performed at 12° C. with 20 mM HEPES, 150 mM NaCl, 5% DMSO, pH 7.5 as the running buffer. […] The concentration was confirmed using ^1H 1D NMR. […] Samples were injected for 60 s with a dissociation time of 60 s at a flow rate of 40 μl/min. Solvent correction was performed to correct for excluded volume effects. The integrity of the coupled CD28 was validated by injection of the known binding partner CD80 (Sino Biological) (Waite et al., 2020) (5 point dilution series with 2 μM top concentration).
In T cells, the c-jun promoter is activated by anti-CD28 engagement. CD28, a homodimeric cell surface glycoprotein, is a co-stimulatory signal required for T cell activation. The inventors investigated whether BT2 might interact with CD28. […]

CD3 = assay: Immunohistochemistry of B16F10 tumors (Day 17), CD3; assay type: in vivo, mouse; details: B16F10 tumors Day 17, 200 mg/kg i.p.
Description: Immunohistochemical staining and analyses. Rabbit monoclonal anti-CD3 (cat. no. ab16669; mouse, rat and human reactive), rabbit monoclonal anti-PD-1 (cat. no. ab214421), rabbit monoclonal anti-CD68 (cat. no. ab125212) antibodies were obtained from Abcam, rabbit monoclonal anti-phospho-ERK (Thr^202/Tyr^204) (cat. no. CST4370), rabbit monoclonal total ERK (cat. no. CST4695), antibodies were obtained from Cell Signaling Technology. Rabbit polyclonal anti-PD-L1 (cat. no. PA5-20343) antibody was obtained from ThermoFisher.
Formalin fixed, paraffin embedded sections were prepared from tumors. Heat-induced epitope retrieval was applied to all deparaffinized sections (4 μm sections on Superfrost slides) with citrate buffer, pH 6.0 for 5 min at 110° C. Sections were blocked with Dual Endogenous Enzyme Block (DAKO, S2003) for 10 min and then with 2% skim milk for 20 min. Slides were incubated with primary antibody for 60 min at room temperature or overnight at 4° C. and then for 10 min with probe of MACH3 Rabbit AP-Polymer Detection solution (Biocare Medical, M3R533 G, H, L). […] Integrated optical density (IOD) or area of positive staining (red chromagen) was assessed using Image-Pro Plus software (Cybernetics, Bethesda, MD, USA). Positive staining was the average of quantitation in 4-8 fields of view under 20× or 40× objectives. […]

T1 sequence (Q0PDN3 19-152): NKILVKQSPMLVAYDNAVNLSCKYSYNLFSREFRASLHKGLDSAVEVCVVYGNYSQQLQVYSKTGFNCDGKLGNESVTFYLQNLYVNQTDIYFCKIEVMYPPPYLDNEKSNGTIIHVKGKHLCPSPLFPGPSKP

AUC(0-t) ([1]; ip, Formulation 1 (G2)): 1440 ng·h/mL and 4.41 µM·h
Cmax ([1]; ip, Formulation 1 (G2)): 1070 ng/mL and 3.29 µM
Tmax ([1]; ip, Formulation 1 (G2)): 15 min
half-life ([1]; ip, Formulation 1 (G2)): 523 min
AUC(0-t) ([1]; ip, Formulation 3 (G6)): 1180 ng·h/mL and 3.62 µM·h
Cmax ([1]; ip, Formulation 3 (G6)): 2.59 µM and 846 ng/mL
Tmax ([1]; ip, Formulation 3 (G6)): 30 min
half-life ([1]; ip, Formulation 3 (G6)): 505 min
bioavailability ([1]; po, Formulation 1 (G1)): 13.1%
AUC(0-t) ([1]; po, Formulation 1 (G1)): 189 ng·h/mL and 0.579 µM·h
Cmax ([1]; po, Formulation 1 (G1)): 177 nM and 57.9 ng/mL
Tmax ([1]; po, Formulation 1 (G1)): 15 min
bioavailability ([1]; po, Formulation 3 (G5)): 28.8%
AUC(0-t) ([1]; po, Formulation 3 (G5)): 340 ng·h/mL and 1.04 µM·h
Cmax ([1]; po, Formulation 3 (G5)): 53.7 ng/mL and 165 nM
Tmax ([1]; po, Formulation 3 (G5)): 60 min
binding to CD28 (SPR sensorgram) (CD28): bound to CD28 in a dose-dependent manner
SMILES: CCOC(=O)Nc1ccc2c(c1)C(=O)N(CC)c1ccccc1O2 [BT2, (10-ethyl-11-oxo-10,11-dihydro-dibenzo[b,f][1,4]oxazepin-2-yl)-carbamic acid ethyl ester]
CD3+ staining in the tumor periphery (within 250 μm) (IHC) (CD3): stimulated CD3^+ staining in the tumor periphery
